Experiment [1] relates to Brown Planthopper (Nilaparvata lugens, NILALU, BPH). In words: Bioassay 6: brown planthopper, sprayed rice seedlings. The class given is in vivo. The conditions noted are these: AI alone, AI Rate 0.049 g/ha, 6 days. Here is the method: At these rates, F1 and the individual active ingredients were tested at a ratio of 1:1. […] F1 and triflumezopyrim were tested at a ratio of 16:1. Test solutions were prepared containing F1, the individual active ingredients, and mixtures of F1 with each of the active ingredients. Test solutions were prepared by weighing 5 mg of each test chemistry (either alone or in combination depending on the treatment) into a 25 mL glass vial. Next, 1 mL of acetone was added to each vial to dissolve the test chemistries, followed by 19 mL of water with 0.125% Tween 20 adjuvant. This test solution represented the 50 g/ha treatment, which was then serially diluted four-fold to create the three lower rates of 12.5, 3.125, and 0.78 g/ha. Triflumezopyrim was prepared in a similar manner, but two additional serial dilutions were conducted to create solutions representing 6 rates of 12.5, 3.125, 0.78, 0.19, 0.049, and 0.012 g/ha. The higher two doses were discarded, and the four lower doses were used for testing. Each rate was replicated four times, and solvent blanks were used as control treatments.
Five (5) rice seedlings (10-12 days old) planted in 3-inch pots were used as test plants. Rice seedlings were grown in soil and the soil was covered with a 2% agar solution. The test solutions were applied to test plants using a Devries laboratory research sprayer, set to spray at 200 liters per hectare (L/ha) using a TeeJet hollow cone nozzle. Following application, the rice seedlings were dried for 1 hour, after which a single clear plastic tube (2 inches in diameter×12 inches in height) was placed over the seedlings in each pot. The tube was pushed down into the agar to create a sealed test chamber. The agar prevented insects from hiding in the soil and made adult collection and grading easier. Ten to fifteen (10-15) 5th instar BPH nymphs were transferred to each test chamber using a vacuum aspirator. Immediately following BPH infestation, the test chamber was covered with a piece of grade 90 cheesecloth and secured with a rubber band, sealing the test chamber. The test chambers were held at 25° C. for 6 days, after which the total number of live insects was counted in each test chamber. Percent control was measured using Abbott's correction formula (W. S. Abbott, J. Econ. Entomol. 18 (1925), pp. 265-267) as follows:
where X=No. of live insects on solvent check and Y=No. of live insects in treated chambers. In Table B6 the “Expected % Control” was calculated using the method described in Colby S. R., Weeds, 1967, 15, 20-22. Bioassay 7: Corn Earworm (Helicoverpa zea, HELIZE, “CEW”), Fall Armyworm (Spodoptera frugiperda, LAPHFR, “FAW”), Beet Armyworm (Spodoptera exigua, LAPHEG, “BAW”),and Soybean Looper (Chrysodeixis includens, PSEPIN, “SBL”).

Experiment [2] deals with Sweet Potato Whitefly (Bemisia tabaci, BEMITA, SPW). In words: Bioassay 2: sweet potato whitefly, cotton seedling foliar spray. The experiment is classed as in vivo. The conditions noted are these: AI alone. The method, then: Stock solutions were prepared with F1 as well as for each of the active ingredients individually. Test solutions were prepared from the stock solutions. Test solutions were prepared containing F1, the individual active ingredients, and mixtures of F1 with each of the active ingredients. The test solutions for F1 and the individual active ingredients were prepared by adding 500 μL of stock solution to a 25 mL glass vial, then adding 500 μL of acetone, followed by the addition of 9 mL water with 0.025% Tween® 20 to create a 0.001% (w/v) solution. The test solutions containing mixtures of F1, and the individual active ingredients were prepared by adding 500 μL of the active ingredient stock solution to a 25 mL glass vial, followed by 500 μL of the F1 stock solution, then by the addition of 9 mL water with 0.025% Tween® 20 to create a test solution containing 0.001% (w/v) F1 and 0.001% (w/v) of the active ingredient. Each test solution was serially diluted to create desired doses of test solutions (0.001% (w/v), 0.0001% (w/v), 0.00001% (w/v), 0.000001% (w/v), 0.0000001% (w/v), and 0.00000001% (w/v)).
The test solutions were tested against SPW using the following procedure: Cotton seedlings grown in 3-inch pots, pruned so that only one true leaf remained, were used as test substrate. Adult B. tabaci were allowed to colonize the cotton plants and lay eggs for 24 hours after which all adults were removed from the plants using compressed air. Plants were monitored for egg development, and when crawler emergence was underway (>25% emergence based on visual examination using a microscope), the plants were sprayed using the test solutions and methods described above for green peach aphids (GPA). Treated plants were held in a holding room at approximately 25° C. and ambient relative humidity (RH) prior to grading. Evaluation was conducted by counting the number of developed 2-3 instar nymphs per plant under a microscope 7-9 days after treatment. Percent control was measured using Abbott's correction formula (W. S. Abbott, J. Econ. Entomol. 18 (1925), pp. 265-267) as follows:
where X=No. of live nymphs on solvent check plants and Y=No. of live nymphs on treated plants. In Table B2 the “Expected % Control” was calculated using the method described in Colby S. R., Weeds, 1967, 15, 20-22. Bioassay 3: Western Flower Thrips (Frankliniella occidentalis, FRANOC, “WFT”).

The values that follow come from patent US20260182575A1, “MOLECULES HAVING PESTICIDAL UTILITY AND INTERMEDIATES AND PROCESSES RELATED THERETO” (CORTEVA AGRISCIENCE LLC, priority 2022, published 2026).

As for `C[C@]1(COC(=O)C2CC2)[C@@H]2C[C@H](O)[C@@]3(C)Oc4cc(-c5cccnc5)oc(=O)c4[C@H](O)[C@@H]3[C@@]2(C)CC[C@@H]1OC(=O)C1CC1` [Afidopyropen], the “Average % Control AI” value was 11.4% in experiment [1] and 0.0% in experiment [2] (Wt % AI 0.00001, 7-9 days). Consider `CON=CNC(=O)c1ccc(C2=NOC(c3cc(Cl)cc(Cl)c3)(C(F)(F)F)C2)cc1C` (stereo not drawn) [Fluxametamide], for which, in experiment [1], the “Average % Control AI” value worked out at 42.3%. As for `COC(=O)N(C(=O)N1CO[C@@]2(C(=O)OC)Cc3cc(Cl)ccc3C2=N1)c1ccc(OC(F)(F)F)cc1` [Indoxacarb], the “Average % Control AI” value in experiment [1] was 1.2%.

On to `CN1COCN(Cc2cnc(Cl)s2)/C1=N\[N+](=O)[O-]` [Thiamethoxam], for which the “Average % Control AI” value in experiment [2] (Wt % AI 0.000001, 7-9 days) was found to be 5.8%; in experiment [2] (Wt % AI 0.00001, 7-9 days), 35.9%.
